Literature values in publication PMC8965884, “Synthesis and Characterization of Phenylboronic Acid-Modified Insulin With Glucose-Dependent Solubility” (Frontiers in Chemistry, 2022).

Text: Insulin glargine, marketed as Lantus®, is a long-acting insulin analog with a 24-h dosing regimen. The additional 2 arginine residues on the C-terminus of the B chain increases its isoelectric point (pI) 6.7, which lowers its solubility at physiological pH and leads to precipitation at the subcutaneous injection site ([Kohn et al., 2007]). Glargine is then released slowly from the precipitate into the bloodstream to establish the long-acting property.

| Molecule | pKa (non-substituted PBA, ref Yan et al., 2004) | isoelectric point (pI) (ref Kohn et al., 2007) |
| --- | --- | --- |
| OB(O)c1ccccc1 [PBA, phenylboronic acids] | 8.8 |  |
| Insulin glargine |  | 6.7 |
